The target in this test is Hypoxia-inducible factor 1-alpha (Homo sapiens, UniProt Q16665). Briefly: Inhibition of hypoxia-induced HIF1alpha transcriptional activity in human Hep3B cells co-transfected with luciferase reporter plasmid containing six copies of HREs and pRL-CMV vector assessed as reduction in luciferase activity incubated for 24 hrs under hypoxic condition by HRE-dependent dual luciferase reporter gene assay.

Structures are written as SMILES. Where only a bound is given, the exact number is not on record here.

Chain of Hypoxia-inducible factor 1-alpha (Q16665 whole entry): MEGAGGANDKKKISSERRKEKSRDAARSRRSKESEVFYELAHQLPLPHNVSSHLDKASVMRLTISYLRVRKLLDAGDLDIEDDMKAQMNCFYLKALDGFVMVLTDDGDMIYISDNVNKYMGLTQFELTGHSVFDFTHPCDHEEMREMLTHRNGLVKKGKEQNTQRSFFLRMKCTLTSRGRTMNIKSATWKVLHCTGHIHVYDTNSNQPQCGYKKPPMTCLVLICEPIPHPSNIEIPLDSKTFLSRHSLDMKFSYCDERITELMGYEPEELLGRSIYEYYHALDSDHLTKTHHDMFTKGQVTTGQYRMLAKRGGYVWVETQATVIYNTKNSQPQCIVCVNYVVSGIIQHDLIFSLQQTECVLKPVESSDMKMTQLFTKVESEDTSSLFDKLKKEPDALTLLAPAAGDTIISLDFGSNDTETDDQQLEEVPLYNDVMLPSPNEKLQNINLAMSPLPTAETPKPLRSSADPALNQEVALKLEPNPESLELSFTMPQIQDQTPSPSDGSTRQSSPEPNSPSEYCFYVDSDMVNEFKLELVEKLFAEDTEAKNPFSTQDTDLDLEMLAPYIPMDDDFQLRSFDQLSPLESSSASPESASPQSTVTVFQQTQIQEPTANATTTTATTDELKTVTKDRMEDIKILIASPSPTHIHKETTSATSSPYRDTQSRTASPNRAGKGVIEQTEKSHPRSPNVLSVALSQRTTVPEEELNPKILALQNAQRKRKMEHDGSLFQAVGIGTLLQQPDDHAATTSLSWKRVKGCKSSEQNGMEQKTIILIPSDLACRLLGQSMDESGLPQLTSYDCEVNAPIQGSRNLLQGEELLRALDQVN

The IC50 is the concentration that inhibits the measured activity by half. As for `C=c1c(O)c(O)cc2c1=CC=C1[C@@]2(C)CC[C@@]2(C)[C@@H]3C[C@](C)(C(=O)O)CC[C@]3(C)CC[C@]12C`, the IC50 was found to be 250 nM.

In the case of `CCOP(=O)(OCC)C(NC(=O)COC(=O)[C@]1(C)CC[C@]2(C)CC[C@]3(C)C4=CC=C5C(=CC(=O)C(O)=C5C)[C@]4(C)CC[C@@]3(C)[C@@H]2C1)c1ccccc1` (stereo not given in full), the IC50 was 240 nM.

For the molecule `CCOP(=O)(OCC)C(NC(=O)COC(=O)[C@]1(C)CC[C@]2(C)CC[C@]3(C)C4=CC=C5C(=CC(=O)C(O)=C5C)[C@]4(C)CC[C@@]3(C)[C@@H]2C1)c1ccc(F)cc1` (stereo not given in full), the IC50 was > 30000 nM. Take `CCOP(=O)(OCC)C(NC(=O)COC(=O)[C@]1(C)CC[C@]2(C)CC[C@]3(C)C4=CC=C5C(=CC(=O)C(O)=C5C)[C@]4(C)CC[C@@]3(C)[C@@H]2C1)c1ccc(C)cc1` (stereo not given in full): the IC50 is > 30000 nM. The figure for `CCOP(=O)(OCC)C(NC(=O)COC(=O)[C@]1(C)CC[C@]2(C)CC[C@]3(C)C4=CC=C5C(=CC(=O)C(O)=C5C)[C@]4(C)CC[C@@]3(C)[C@@H]2C1)c1ccc(OC)cc1` (stereo not given in full) is 160 nM; for `CC1=C(O)C(=O)C=C2C1=CC=C1[C@@]2(C)CC[C@@]2(C)[C@@H]3C[C@](C)(C(=O)OCC(=O)NCc4cn(-c5ccccc5)nn4)CC[C@]3(C)CC[C@]12C` it is 600 nM; for `CC1=C(O)C(=O)C=C2C1=CC=C1[C@@]2(C)CC[C@@]2(C)[C@@H]3C[C@](C)(C(=O)OCC(=O)NCc4cn(-c5ccc(C)cc5)nn4)CC[C@]3(C)CC[C@]12C` it is > 30000 nM. Under `COc1ccc(-n2cc(CNC(=O)COC(=O)[C@]3(C)CC[C@]4(C)CC[C@]5(C)C6=CC=C7C(=CC(=O)C(O)=C7C)[C@]6(C)CC[C@@]5(C)[C@@H]4C3)nn2)cc1` stands > 30000 nM; under `CC1=C(O)C(=O)C=C2C1=CC=C1[C@@]2(C)CC[C@@]2(C)[C@@H]3C[C@](C)(C(=O)OCC(=O)NCc4cn(-c5ccc(Cl)cc5)nn4)CC[C@]3(C)CC[C@]12C`, > 30000 nM. `CC1=C(O)C(=O)C=C2C1=CC=C1[C@@]2(C)CC[C@@]2(C)[C@@H]3C[C@](C)(C(=O)OCC(=O)NCc4cn(-c5ccc(Cl)c(Cl)c5)nn4)CC[C@]3(C)CC[C@]12C`: the IC50 was determined as 120 nM. Under `CC1=C(O)C(=O)C=C2C1=CC=C1[C@@]2(C)CC[C@@]2(C)[C@@H]3C[C@](C)(C(=O)OCC(=O)Nc4cnc5ccccc5c4)CC[C@]3(C)CC[C@]12C` stands 90 nM; under `CC1=C(O)C(=O)C=C2C1=CC=C1[C@@]2(C)CC[C@@]2(C)[C@@H]3C[C@](C)(C(=O)OCC(=O)Nc4ccnc5ccccc45)CC[C@]3(C)CC[C@]12C`, 490 nM; under `CC1=C(O)C(=O)C=C2C1=CC=C1[C@@]2(C)CC[C@@]2(C)[C@@H]3C[C@](C)(C(=O)OCC(=O)Nc4cccc5ncccc45)CC[C@]3(C)CC[C@]12C`, 360 nM.

Consider `CC1=C(O)C(=O)C=C2C1=CC=C1[C@@]2(C)CC[C@@]2(C)[C@@H]3C[C@](C)(C(=O)OCC(=O)Nc4ccc5ncccc5c4)CC[C@]3(C)CC[C@]12C`, for which the concentration for half-maximal inhibition (IC50) worked out at 240 nM. As for `CC1=C(O)C(=O)C=C2C1=CC=C1[C@@]2(C)CC[C@@]2(C)[C@@H]3C[C@](C)(C(=O)OCC(=O)Nc4cccc5cccnc45)CC[C@]3(C)CC[C@]12C`, the IC50 came to 350 nM. The figure for `CC1=C(O)C(=O)C=C2C1=CC=C1[C@@]2(C)CC[C@@]2(C)[C@@H]3C[C@](C)(C(=O)OCCOc4cnc5ccccc5c4)CC[C@]3(C)CC[C@]12C` is 50 nM; for `CC1=C(O)C(=O)C=C2C1=CC=C1[C@@]2(C)CC[C@@]2(C)[C@@H]3C[C@](C)(C(=O)OCCOc4cccc5ncccc45)CC[C@]3(C)CC[C@]12C` it is > 30000 nM; for `CC1=C(O)C(=O)C=C2C1=CC=C1[C@@]2(C)CC[C@@]2(C)[C@@H]3C[C@](C)(C(=O)OCCOc4ccc5cccnc5c4)CC[C@]3(C)CC[C@]12C` it is 170 nM. Take `CC1=C(O)C(=O)C=C2C1=CC=C1[C@@]2(C)CC[C@@]2(C)[C@@H]3C[C@](C)(C(=O)OCC(=O)Nc4ccncc4)CC[C@]3(C)CC[C@]12C`: the IC50 came out at 32000 nM. As to `CC1=C(O)C(=O)C=C2C1=CC=C1[C@@]2(C)CC[C@@]2(C)[C@@H]3C[C@](C)(C(=O)OCC(=O)Nc4ccc(F)cn4)CC[C@]3(C)CC[C@]12C`, the IC50 is 250 nM. With `CC1=C(O)C(=O)C=C2C1=CC=C1[C@@]2(C)CC[C@@]2(C)[C@@H]3C[C@](C)(C(=O)OCC(=O)Nc4ccc(F)nc4)CC[C@]3(C)CC[C@]12C`, the half-maximal inhibitory concentration (IC50) is 160 nM.

Consider `CC1=C(O)C(=O)C=C2C1=CC=C1[C@@]2(C)CC[C@@]2(C)[C@@H]3C[C@](C)(C(=O)OCC(=O)Nc4cc(C)on4)CC[C@]3(C)CC[C@]12C`, for which the IC50 came out at 70 nM. `CC1=C(O)C(=O)C=C2C1=CC=C1[C@@]2(C)CC[C@@]2(C)[C@@H]3C[C@](C)(C(=O)OCCOc4cc(C)oc(=O)c4)CC[C@]3(C)CC[C@]12C`: the IC50 came out at 150 nM. As for `CC1=C(O)C(=O)C=C2C1=CC=C1[C@@]2(C)CC[C@@]2(C)[C@@H]3C[C@](C)(C(=O)OCCOc4cc(=O)oc5ccccc45)CC[C@]3(C)CC[C@]12C`, the IC50 was determined as 150 nM. Under `CC1=C(O)C(=O)C=C2C1=CC=C1[C@@]2(C)CC[C@@]2(C)[C@@H]3C[C@](C)(C(=O)OCCOc4ccc5ccc(=O)oc5c4)CC[C@]3(C)CC[C@]12C` stands 80 nM.
